ChEMBL document CHEMBL1152012, “Synthesis of (+)-biotin derivatives as HIV-1 protease inhibitors” (Bioorg Med Chem Lett, 1996)

Experiments:
[1] = biological target: Human immunodeficiency virus type 1 protease (Human immunodeficiency virus 1, UniProt Q72874); assay: Inhibitory activity against HIV protease enzyme.
MT2 = assay: Concentration resulting in 90% inhibition of viral RNA production in HIV-1 infected MT-2 cells; assay type: functional; settings: Homo sapiens

SMILES	Ki [1] [µM]	IC90 (MT2) [µM]
COC(=O)CCCC[C@@H]1SCC2C1N(Cc1cccc(Br)c1)C(=O)N2Cc1cccc(Br)c1 (some centres not stated)	0.58	44
O=C1N(Cc2cccc(Br)c2)C2CS[C@@H](CCCCCO)C2N1Cc1cccc(Br)c1 (some centres not stated)	0.5	7
CC(=O)c1cccc(CN2C(=O)N(Cc3cccc(C(C)=O)c3)C3C2CS[C@H]3CCCCCO)c1 (some centres not stated)	3.7	26
O=C1N(Cc2ccccc2)C2CS[C@@H](CCCCCO)C2N1Cc1ccccc1 (some centres not stated)	10.3	46
CC(=O)c1cccc(COC(=O)CCCC[C@@H]2SCC3C2N(Cc2cccc(C(C)=O)c2)C(=O)N3Cc2cccc(C(C)=O)c2)c1 (some centres not stated)	3.4	12.5
O=C(O)CCCC[C@@H]1SCC2C1N(Cc1cccc(Br)c1)C(=O)N2Cc1cccc(Br)c1 (some centres not stated)	2.2	34
COC(=O)CCCC[C@H]1C2C(CS1(=O)=O)N(Cc1cccc(Br)c1)C(=O)N2Cc1cccc(Br)c1 (some centres not stated)	4.1	> 80
O=C1N(Cc2cccc(Br)c2)C2CS(=O)(=O)[C@@H](CCCCCO)C2N1Cc1cccc(Br)c1 (some centres not stated)	6.9	80
O=C(CCCC[C@@H]1SCC2C1N(Cc1cccc(Br)c1)C(=O)N2Cc1cccc(Br)c1)OCc1cccc(Br)c1 (some centres not stated)	0.68	45
C/C(=N\O)c1cccc(COC(=O)CCCC[C@@H]2SCC3C2N(Cc2cccc(/C(C)=N/O)c2)C(=O)N3Cc2cccc(/C(C)=N/O)c2)c1 (some centres not stated)	2.7	67
CC(O)c1cccc(CN2C(=O)N(Cc3cccc(C(C)O)c3)C3C2CS[C@H]3CCCCCO)c1 (some centres not stated)	1.9	> 98
